Data reported in PubChem BioAssay (NCI).
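Cells were grown in 96-well plates and exposed to each compound for 48 hours at five concentrations; endpoints were interpolated linearly between bracketing concentrations, or set to the highest concentration if not reached. TGI is the concentration that stops growth completely.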

Key:
Assay in all cases: NCI tumour cell line growth inhibition, 48 h
DMS 114 small cell lung = tested on: DMS 114 small cell lung
SNB-78 CNS = tested on: SNB-78 CNS
A549 NSCLC = tested on: A549 NSCLC
LXFL 529 NSCLC = tested on: LXFL 529 NSCLC
A498 renal = tested on: A498 renal
UO-31 renal = tested on: UO-31 renal
MALME-3M melanoma = tested on: MALME-3M melanoma
OVCAR-3 ovarian = tested on: OVCAR-3 ovarian
HL-60(TB) leukemia = tested on: HL-60(TB) leukemia
SN12C renal = tested on: SN12C renal
OVCAR-8 ovarian = tested on: OVCAR-8 ovarian
HOP-18 NSCLC = tested on: HOP-18 NSCLC
K-562 leukemia = tested on: K-562 leukemia
HOP-92 NSCLC = tested on: HOP-92 NSCLC
OVCAR-4 ovarian = tested on: OVCAR-4 ovarian
NCI-H23 lung = tested on: NCI-H23 lung
U251 CNS = tested on: U251 CNS
UACC-257 melanoma = tested on: UACC-257 melanoma
XF 498 CNS = tested on: XF 498 CNS
HCT-116 colon = tested on: HCT-116 colon
CCRF-CEM leukemia = tested on: CCRF-CEM leukemia
ACHN renal = tested on: ACHN renal
NCI-H460 lung = tested on: NCI-H460 lung
OVCAR-5 ovarian = tested on: OVCAR-5 ovarian
HCC-2998 colon = tested on: HCC-2998 colon
KM20L2 colon = tested on: KM20L2 colon
TK-10 renal = tested on: TK-10 renal
SNB-75 CNS = tested on: SNB-75 CNS
EKVX NSCLC = tested on: EKVX NSCLC
MOLT-4 leukemia = tested on: MOLT-4 leukemia
SNB-19 CNS = tested on: SNB-19 CNS
HOP-62 NSCLC = tested on: HOP-62 NSCLC
HT29 colon = tested on: HT29 colon
SK-MEL-5 melanoma = tested on: SK-MEL-5 melanoma
UACC-62 melanoma = tested on: UACC-62 melanoma
NCI-H226 lung = tested on: NCI-H226 lung
RXF-631 renal = tested on: RXF-631 renal
DLD-1 colon = tested on: DLD-1 colon
NCI-H522 lung = tested on: NCI-H522 lung
RPMI-8226 leukemia = tested on: RPMI-8226 leukemia
SK-MEL-2 melanoma = tested on: SK-MEL-2 melanoma
SK-MEL-28 melanoma = tested on: SK-MEL-28 melanoma
SF-295 CNS = tested on: SF-295 CNS
SW-620 colon = tested on: SW-620 colon
LOX IMVI melanoma = tested on: LOX IMVI melanoma
786-0 renal = tested on: 786-0 renal
DMS 273 small cell lung = tested on: DMS 273 small cell lung
RXF 393 renal = tested on: RXF 393 renal
HCT-15 colon = tested on: HCT-15 colon
SF-268 CNS = tested on: SF-268 CNS
M19-MEL melanoma = tested on: M19-MEL melanoma
M14 melanoma = tested on: M14 melanoma
IGROV1 ovarian = tested on: IGROV1 ovarian
KM12 colon = tested on: KM12 colon
SF-539 CNS = tested on: SF-539 CNS
CAKI-1 renal = tested on: CAKI-1 renal
BT-549 breast = tested on: BT-549 breast
SN12K1 renal = tested on: SN12K1 renal
P388/ADR leukemia = tested on: P388/ADR leukemia
COLO 205 colon = tested on: COLO 205 colon
T-47D breast = tested on: T-47D breast
MCF7 breast = tested on: MCF7 breast
SR leukemia = tested on: SR leukemia
P388 leukemia = tested on: P388 leukemia
NCI/ADR-RES ovarian = tested on: NCI/ADR-RES ovarian
MDA-N = tested on: MDA-N
MDA-MB-231 breast = tested on: MDA-MB-231 breast
SK-OV-3 ovarian = tested on: SK-OV-3 ovarian
HS 578T breast = tested on: HS 578T breast
MDA-MB-435 = tested on: MDA-MB-435
DU-145 prostate = tested on: DU-145 prostate
PC-3 prostate = tested on: PC-3 prostate

SMILES: COc1ccc(C(=O)C(C(=O)CCC(=O)Nc2ccc(Cl)c(Cl)c2)c2ccc(OC)cc2)cc1 (stereo unspecified)
- TGI (DMS 114 small cell lung): > 100 µM
- TGI (SNB-78 CNS): > 100 µM
- TGI (A549 NSCLC): > 100 µM
- TGI (LXFL 529 NSCLC): > 100 µM
- TGI (A498 renal): > 100 µM
- TGI (UO-31 renal): > 100 µM
- TGI (MALME-3M melanoma): > 100 µM
- TGI (OVCAR-3 ovarian): > 100 µM
- TGI (HL-60(TB) leukemia): > 100 µM
- TGI (SN12C renal): > 100 µM
- TGI (OVCAR-8 ovarian): > 100 µM
- TGI (HOP-18 NSCLC): > 100 µM
- TGI (K-562 leukemia): > 100 µM
- TGI (HOP-92 NSCLC): > 100 µM
- TGI (OVCAR-4 ovarian): > 100 µM
- TGI (NCI-H23 lung): > 100 µM
- TGI (U251 CNS): > 100 µM
- TGI (UACC-257 melanoma): > 100 µM
- TGI (XF 498 CNS): > 100 µM
- TGI (HCT-116 colon): > 100 µM
- TGI (CCRF-CEM leukemia): > 100 µM
- TGI (ACHN renal): > 100 µM
- TGI (NCI-H460 lung): > 100 µM
- TGI (OVCAR-5 ovarian): > 100 µM
- TGI (HCC-2998 colon): > 100 µM
- TGI (KM20L2 colon): > 100 µM
- TGI (TK-10 renal): > 100 µM
- TGI (SNB-75 CNS): > 100 µM
- TGI (EKVX NSCLC): > 100 µM
- TGI (MOLT-4 leukemia): > 100 µM
- TGI (SNB-19 CNS): > 100 µM
- TGI (HOP-62 NSCLC): > 100 µM
- TGI (HT29 colon): > 100 µM
- TGI (SK-MEL-5 melanoma): > 100 µM
- TGI (UACC-62 melanoma): > 100 µM
- TGI (NCI-H226 lung): > 100 µM
- TGI (RXF-631 renal): > 100 µM
- TGI (DLD-1 colon): > 100 µM
- TGI (NCI-H522 lung): > 100 µM
- TGI (RPMI-8226 leukemia): > 100 µM
- TGI (SK-MEL-2 melanoma): > 100 µM
- TGI (SK-MEL-28 melanoma): > 100 µM
- TGI (SF-295 CNS): > 100 µM
- TGI (SW-620 colon): > 100 µM
- TGI (LOX IMVI melanoma): > 100 µM
- TGI (786-0 renal): > 100 µM
- TGI (DMS 273 small cell lung): > 100 µM
- TGI (RXF 393 renal): > 100 µM
- TGI (HCT-15 colon): > 100 µM
- TGI (SF-268 CNS): > 100 µM
- TGI (M19-MEL melanoma): > 100 µM
- TGI (M14 melanoma): > 100 µM
- TGI (IGROV1 ovarian): > 100 µM
- TGI (KM12 colon): > 100 µM
- TGI (SF-539 CNS): > 100 µM
- TGI (CAKI-1 renal): > 100 µM

SMILES: Cc1c2cnccc2c(C)c2c1c1ccccc1n2CCOC(=O)c1ccccc1
- TGI (DMS 114 small cell lung): 30.6 µM
- TGI (BT-549 breast): > 100 µM
- TGI (SNB-78 CNS): 85.4 µM
- TGI (A549 NSCLC): 43.1 µM
- TGI (SN12K1 renal): 26.6 µM
- TGI (P388/ADR leukemia): 35.1 µM
- TGI (A498 renal): 32.2 µM
- TGI (UO-31 renal): 15.3 µM
- TGI (MALME-3M melanoma): 28.8 µM
- TGI (COLO 205 colon): 47 µM
- TGI (OVCAR-3 ovarian): 28.8 µM
- TGI (HL-60(TB) leukemia): 26 µM
- TGI (T-47D breast): > 100 µM
- TGI (MCF7 breast): 44.1 µM
- TGI (SN12C renal): 21 µM
- TGI (OVCAR-8 ovarian): 26.9 µM
- TGI (HOP-18 NSCLC): > 100 µM
- TGI (K-562 leukemia): 44.5 µM
- TGI (HOP-92 NSCLC): 71.9 µM
- TGI (OVCAR-4 ovarian): 49.3 µM
- TGI (NCI-H23 lung): 54.7 µM
- TGI (U251 CNS): 44.1 µM
- TGI (SR leukemia): 45.9 µM
- TGI (UACC-257 melanoma): 42 µM
- TGI (XF 498 CNS): 5.64 µM
- TGI (HCT-116 colon): 28.2 µM
- TGI (CCRF-CEM leukemia): 64.4 µM
- TGI (ACHN renal): 56.3 µM
- TGI (NCI-H460 lung): 16 µM
- TGI (OVCAR-5 ovarian): 69 µM
- TGI (HCC-2998 colon): 29.8 µM
- TGI (P388 leukemia): 41.4 µM
- TGI (KM20L2 colon): 50.5 µM
- TGI (TK-10 renal): 40.9 µM
- TGI (NCI/ADR-RES ovarian): 33 µM
- TGI (SNB-75 CNS): 44.7 µM
- TGI (EKVX NSCLC): 47.9 µM
- TGI (MOLT-4 leukemia): 25.4 µM
- TGI (SNB-19 CNS): 40.2 µM
- TGI (HOP-62 NSCLC): 31.5 µM
- TGI (MDA-N): > 100 µM
- TGI (HT29 colon): 54.1 µM
- TGI (MDA-MB-231 breast): > 100 µM
- TGI (SK-MEL-5 melanoma): 38.9 µM
- TGI (UACC-62 melanoma): 34.8 µM
- TGI (NCI-H226 lung): 70 µM
- TGI (DLD-1 colon): 49.3 µM
- TGI (SK-OV-3 ovarian): 25.5 µM
- TGI (HS 578T breast): 84.6 µM
- TGI (NCI-H522 lung): 31.1 µM
- TGI (RPMI-8226 leukemia): 42 µM
- TGI (SK-MEL-2 melanoma): 31.8 µM
- TGI (SK-MEL-28 melanoma): 47.2 µM
- TGI (SF-295 CNS): 33 µM
- TGI (SW-620 colon): 53.7 µM
- TGI (LOX IMVI melanoma): 33.7 µM
- TGI (786-0 renal): 28.6 µM
- TGI (DMS 273 small cell lung): 18 µM
- TGI (MDA-MB-435): > 100 µM
- TGI (RXF 393 renal): 27.3 µM
- TGI (HCT-15 colon): 59.2 µM
- TGI (DU-145 prostate): > 100 µM
- TGI (SF-268 CNS): 79.5 µM
- TGI (PC-3 prostate): > 100 µM
- TGI (M19-MEL melanoma): 31.8 µM
- TGI (M14 melanoma): > 100 µM
- TGI (IGROV1 ovarian): 42.7 µM
- TGI (KM12 colon): > 98 µM
- TGI (SF-539 CNS): 20.9 µM
- TGI (CAKI-1 renal): 28 µM
